The compounds below were run against VIM-2 metallo β-lactamase (Pseudomonas aeruginosa, UniProt Q9K2N0) (assay: VIM-2 CCF2 hydrolysis inhibition, assay artifact filter – biochemical, FRET readout, CCF2 substrate, artefact control for selective VIM-2 inhibitor project, dose response (AID 1926)).

| SMILES | IC50 [nM] |
| --- | --- |
| COc1ccc(OC)c(C2C(C(=O)c3ccco3)C(=O)C(=O)N2Cc2cccnc2)c1 (configuration not stated) [2-(2,5-dimethoxyphenyl)-3-(furan-2-carbonyl)-4-hydroxy-1-(pyridin-3-ylmethyl)-2H-pyrrol-5-one] | 700 |
| O=C1C(=O)N(Cc2cccnc2)C(c2ccccn2)C1C(=O)c1cccs1 (configuration not stated) [3-hydroxy-5-(2-pyridinyl)-1-(3-pyridinylmethyl)-4-(2-thienylcarbonyl)-1,5-dihydro-2H-pyrrol-2-one] | 4830 |
| COc1ccc(C(=O)C2C(=O)C(=O)N(Cc3ccco3)C2c2cc(OC)ccc2OC)cc1 (configuration not stated) [(4E)-5-(2,5-dimethoxyphenyl)-1-(2-furanylmethyl)-4-[hydroxy-(4-methoxyphenyl)methylidene]pyrrolidine-2,3-dione] | 5610 |
| O=C1C(=O)N(Cc2cccnc2)C(c2ccccn2)C1C(=O)c1ccc(F)cc1 (configuration not stated) [(4Z)-4-[(4-fluorophenyl)-hydroxy-methylene]-5-(2-pyridyl)-1-(3-pyridylmethyl)pyrrolidine-2,3-quinone] | 941 |
| O=C1C(=O)N(Cc2cccnc2)C(c2ccccn2)C1C(=O)c1ccccc1 (configuration not stated) [(4Z)-4-[hydroxy(phenyl)methylene]-5-(2-pyridyl)-1-(3-pyridylmethyl)pyrrolidine-2,3-quinone] | 2170 |
| COc1cc(OC)c(OC)cc1C=NNC(=O)Cc1c(C)[nH][nH]c1=O [MLS000555854] | 1460 |
| COc1ccc(OC)c(C=NNC(=O)Cc2c(C)[nH][nH]c2=O)c1 [SMR000147372] | 2130 |
